Experimental data as given in patent US9217743B2, “Screening method utilizing thalidomide-targeting factor” (Tokyo Institute of Technology, priority 2009, dated 2015).
Entries after “also recorded” stand apart in the source; their conditions may differ.

What was measured:
[1] = target: CRBN (Homo sapiens, UniProt Q96SW2); experiment: Elution of CRBN from thalidomide-immobilized beads by test compound, Western blotting; details: for CRBN eluted from thalidomide-immobilized beads by the compound: 293T cell extracts, buffer containing 0.1 to 1 mM compound, one hour, Western blotting; for bindability with CRBN: concluded from elution from thalidomide-immobilized beads
CRBN, sequence (Q96SW2 whole entry): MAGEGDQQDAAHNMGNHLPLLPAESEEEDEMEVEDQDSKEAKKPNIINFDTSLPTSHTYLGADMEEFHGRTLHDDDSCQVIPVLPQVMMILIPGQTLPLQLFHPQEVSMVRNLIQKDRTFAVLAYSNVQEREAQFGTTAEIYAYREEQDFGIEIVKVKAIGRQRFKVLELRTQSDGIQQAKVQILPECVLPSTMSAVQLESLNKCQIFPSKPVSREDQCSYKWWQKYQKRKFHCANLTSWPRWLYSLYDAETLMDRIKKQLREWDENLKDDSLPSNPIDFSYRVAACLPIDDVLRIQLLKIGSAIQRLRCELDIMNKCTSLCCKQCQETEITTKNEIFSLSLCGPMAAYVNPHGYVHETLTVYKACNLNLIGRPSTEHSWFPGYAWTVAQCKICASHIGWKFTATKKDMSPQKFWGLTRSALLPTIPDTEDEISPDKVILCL
Protocol: Firstly, thalidomide-immobilized FG beads are prepared. The immobilized beads are mixed and incubated with extracts of CRBN-expressing cells or recombinant proteins for one hour or longer in a rotator at 5 rpm and 4° C. Then, after the beads are washed with a buffer, for example, a buffer containing a thalidomide derivative as a test substance is passed through the beads to see whether CRBN is eluted. Examples of a detection method include Western blotting, dot blotting, CBB staining, and silver staining.

[2] = test system: multiple myeloma cell Kms12; experiment: Growth inhibition of multiple myeloma cells, Cell Count-Reagent SF; assay type: cell-based, human; details: 48 hours, 37° C., 5% CO2
Protocol: KMS-12 cells were incubated with thalidomide or 5HPP-33 (100 μM) for 48 hours at 37° C. in 5% CO2. For measurement of the number of the living cells, Cell Count-Reagent SF (Nacalai Tesque, Inc.) was added to culture media for 2 hours at the end of the 48 hours culture. The absorbance at 450 nm was measured.
Multiple myeloma cell Kms12 were cultured in RPMI Medium 1640 containing 10% FBS. For treatment with drugs, the medium was adjusted to contain 2×10^5 Kms12 cells/ml and dispensed in 2 ml Eppendorf tubes in 2 ml aliquots. As the stock solution, thalidomide or 5HPP-33 were dissolved in dimethylsulfoxide (DMSO) at concentration of 100 mM and […] respectively. The stock solution was added to the cell suspension at 2 μl/2 ml, followed by gentle and thorough inversion mixing. Cell mixture was dispensed in a 96 well plate at 100 μl/well and cultured at 37° C. and 5% CO2 for 48 hours. For measurement of the number of the living cells, Cell Count-Reagent SF (Nacalai Tesque, Inc.) was added to culture media and incubated for 2 hours. The absorbance at 450 nm, which is correlate to the number, were measured by GloMax-Multi+ Detection System (Promega KK) For preparation of a calibration curve, 1×10^6, 3×10^5 and 1×10^5 Kms12 cells/ml were used. Defining the number of cells treated with the solvent as 100, the number of cells treated with the drugs were expressed as relative values.

[3] = test system: DDB1; experiment: Elution of DDB1 from thalidomide-immobilized beads by test compound, Western blotting; details: Example 6; 293T extracts; elution with 1 mM compound
[4] = test system: shh; experiment: Whole-mount in situ hybridization of zebrafish fin buds; assay type: in vivo; details: AMO injected embryos
Excerpt: (§1) To obtain a clue to the pathway(s) downstream of CRBN and thalidomide, the present inventors analyzed well-known key molecules in fin development. Sonic hedgehog (Shh) is expressed in the zone of polarizing activity (ZPA) and is responsible for anteroposterior patterning of the limb and fin (Cited Literature 27), whereas Fgf8 is expressed in the apical ectodermal ridge (AER) of the limb and fin and is necessary for outgrowth of the limb and fin along the proximodistal axis. […] Thus, an inhibitor of FGF8 production is a possible downstream target of thalidomide and the CRBN-containing E3 complex.
(§2) This assay was carried out in accordance with Cited Literature 41. Antisense probe for zcrbn mRNA was directed against the 5′-coding region of 513 bp. Antisense probe for zcul4a was directed against the 3′ untranslated region (3′ UTR) of 590 bp. Probes for shh and fgf8 were kindly provided by Dr. Krauss and Dr. Thisse, respectively. To increase permeability of probes, fixed embryos were incubated with PBS containing 0.1% Tween-20 and […] proteinase K for two minutes at room temperature.

[5] = test system: fgf8a; experiment: as above; assay type: in vivo; details: AMO injected embryos
Excerpt: as §1, §2

[6] = test system: zebrafish embryos; experiment: Zebrafish embryo development, pectoral fins and otic vesicles; assay type: in vivo, zebrafish (Danio rerio); details: for fin and otic vesicle development: AMO injected into one cell stage embryos

| Compound | CRBN eluted from thalidomide-immobilized beads by the compound [1] | bindability with CRBN [1] | proliferation of the multiple myeloma cell Kms12 [2] | CRBN in the eluate fraction ([1]; Example 6, 293T extracts, elution with 1 mM compound) | DDB1 in the eluate fraction [3] | shh expression [4] | fgf8a expression [5] | fin and otic vesicle development [6] | reduction of the size of otic vesicles compared to wild type ([6]; AMO-injected embryos at 27 hpf) [%] | size of otic vesicles, of the control size ([6]; knockdown embryos at 27 hpf) [%] |
| --- | --- | --- | --- | --- | --- | --- | --- | --- | --- | --- |
| CC(C)c1cccc(C(C)C)c1N1C(=O)c2ccc(O)cc2C1=O [5HPP-33] | very little CRBN was eluted; also recorded: not eluted | low bindability and low and extremely low bindability | potent suppressive action; also recorded: potently suppressed; also recorded: growth inhibition | – | – | – | – | – | – | – |
| O=C1NC(=O)c2ccccc21 [phthalimide] | very little CRBN was eluted; also recorded: not eluted | low bindability | – | not detected | not detected | – | – | – | – | – |
| zcrbn-AMO: antisense morpholino oligo for zcrbn, 5′-AGAGCTGTAGCTGGTTCCCCATTTC-3′ (SEQ ID NO: 5) (all phosphorodiamidate morpholino (PMO)) | – | – | – | – | – | no difference | reduced | exhibited defects | 40 | – |
| zcul4a AMO: antisense morpholino oligo for zcul4a, 5′-CTGGTGCTGAACATCTTCTGCCATC-3′ (SEQ ID NO: 6) (all phosphorodiamidate morpholino (PMO)) | – | – | – | – | – | no difference | reduced | caused defects | – | 40 |
